From the NIST ThermoML archive (doi:10.1016/j.tca.2016.05.013)
Numbers after ± are expanded uncertainties.

Legend:
[1] = mn = molality of the nth substance listed, in mol/kg; conditions: 86.8 kPa, Liquid; for viscosity: Falling or rolling sphere viscometry; for speed of sound: Frequency=3 MHz, Sing-around technique in a fixed-path interferometer; for mass density: Vibrating tube method
[2] = refractive index (Na D-line) (dimensionless); mn = molality of the nth substance listed, in mol/kg; conditions: 86.8 kPa, Liquid, Standard Abbe refractometry

CCCCn1cc[n+](C)c1.O=C([O-])c1ccccc1O [1-butyl-3-methylimidazolium salicylate] + O
Conditions | mass density, [1] [kg/m3] | refractive index, [2] | speed of sound, [1] [m/s] | viscosity, [1] [mPa·s]
288.15 K, m1 = 0.1012 | – | – | – | 1.289 ± 0.035
288.15 K, m1 = 0.1032 | 1004.94 ± 1.2 | 1.3381 ± 0.004 | 1484.4 ± 1.2 | 1.296 ± 0.035
288.15 K, m1 = 0.1055 | 1005.04 ± 1.2 | 1.3383 ± 0.004 | 1484.4 ± 1.2 | –
288.15 K, m1 = 0.2001 | 1010.28 ± 3.6 | 1.3427 ± 0.004 | 1499.1 ± 1.2 | –
288.15 K, m1 = 0.2005 | 1010.45 ± 3.6 | 1.3429 ± 0.004 | 1499.5 ± 1.2 | –
288.15 K, m1 = 0.2124 | – | – | – | 1.432 ± 0.036
288.15 K, m1 = 0.2146 | – | – | – | 1.44 ± 0.036
288.15 K, m1 = 0.2965 | 1015.79 ± 1.2 | 1.3479 ± 0.004 | 1513.9 ± 1.3 | –
288.15 K, m1 = 0.3002 | 1015.82 ± 1.2 | 1.3479 ± 0.004 | 1513.6 ± 1.3 | –
288.15 K, m1 = 0.3146 | – | – | – | 1.535 ± 0.036
288.15 K, m1 = 0.3152 | – | – | – | 1.536 ± 0.036
298.15 K, m1 = 0.1012 | – | – | – | 1.037 ± 0.035
298.15 K, m1 = 0.1032 | 1002.65 ± 1.3 | 1.3376 ± 0.004 | 1512 ± 1.2 | 1.042 ± 0.035
298.15 K, m1 = 0.1055 | 1002.65 ± 1.3 | 1.3376 ± 0.004 | 1511.9 ± 1.2 | –
298.15 K, m1 = 0.2001 | 1007.67 ± 10 | 1.342 ± 0.004 | 1524.5 ± 1.2 | –
298.15 K, m1 = 0.2005 | 1007.91 ± 1.9 | 1.342 ± 0.004 | 1524.8 ± 1.2 | –
298.15 K, m1 = 0.2124 | – | – | – | 1.159 ± 0.035
298.15 K, m1 = 0.2146 | – | – | – | 1.162 ± 0.035
298.15 K, m1 = 0.2965 | 1012.99 ± 1.3 | 1.3468 ± 0.004 | 1537 ± 1.3 | –
298.15 K, m1 = 0.3002 | 1012.91 ± 1.5 | 1.3468 ± 0.004 | 1537 ± 1.3 | –
298.15 K, m1 = 0.3146 | – | – | – | 1.256 ± 0.035
298.15 K, m1 = 0.3152 | – | – | – | 1.253 ± 0.035
308.15 K, m1 = 0.1012 | – | – | – | 0.869 ± 0.035
308.15 K, m1 = 0.1032 | 999.4 ± 1.3 | 1.3365 ± 0.004 | 1532.3 ± 1.2 | 0.872 ± 0.035
308.15 K, m1 = 0.1055 | 999.44 ± 1.3 | 1.3365 ± 0.004 | 1532.4 ± 1.2 | –
308.15 K, m1 = 0.2001 | 1004.28 ± 8 | 1.3407 ± 0.004 | 1543.5 ± 1.3 | –
308.15 K, m1 = 0.2005 | 1004.44 ± 1.9 | 1.3408 ± 0.004 | 1543.3 ± 1.3 | –
308.15 K, m1 = 0.2124 | – | – | – | 0.981 ± 0.035
308.15 K, m1 = 0.2146 | – | – | – | 0.986 ± 0.035
308.15 K, m1 = 0.2965 | 1009.39 ± 1.5 | 1.3456 ± 0.004 | 1553.8 ± 1.3 | –
308.15 K, m1 = 0.3002 | 1009.41 ± 1.5 | 1.3455 ± 0.004 | 1553.8 ± 1.3 | –
308.15 K, m1 = 0.3146 | – | – | – | 1.078 ± 0.035
308.15 K, m1 = 0.3152 | – | – | – | 1.076 ± 0.035
318.15 K, m1 = 0.1012 | – | – | – | 0.748 ± 0.034
318.15 K, m1 = 0.1032 | 995.42 ± 1.2 | 1.335 ± 0.004 | 1546.8 ± 1.2 | 0.751 ± 0.034
318.15 K, m1 = 0.1055 | 995.43 ± 1.2 | 1.3352 ± 0.004 | 1547.3 ± 1.2 | –
318.15 K, m1 = 0.2001 | 1000.19 ± 2 | 1.3393 ± 0.004 | 1555.9 ± 1.3 | –
318.15 K, m1 = 0.2005 | 1000.27 ± 2 | 1.3395 ± 0.004 | 1556 ± 1.3 | –
318.15 K, m1 = 0.2124 | – | – | – | 0.87 ± 0.035
318.15 K, m1 = 0.2146 | – | – | – | 0.876 ± 0.035
318.15 K, m1 = 0.2965 | 1005.07 ± 1.2 | 1.344 ± 0.004 | 1565 ± 1.3 | –
318.15 K, m1 = 0.3002 | 1004.98 ± 1.2 | 1.344 ± 0.004 | 1564.8 ± 1.3 | –
318.15 K, m1 = 0.3146 | – | – | – | 0.962 ± 0.035
318.15 K, m1 = 0.3152 | – | – | – | 0.96 ± 0.035
